Results on two compounds are retold here after US4070484A, “Antiallergic composition containing aromatic carboxylic amide derivatives and method of using the same” (Kissei Pharmaceutical Co., Ltd., priority 1973, dated 1978).

Entries after “also recorded” stand apart in the source; their conditions may differ. Read-outs that look alike come from different tables or passages of the source.

As a reminder, the inhibition is the drop in the measured response relative to a control, in per cent. Higher therefore signals a strong effect. In general, LD50 refers to the dose at which mortality reaches 50%. The low end stands for a more toxic substance, the high end for a less toxic substance.

Data set [1] concerns homologous passive cutaneous anaphylaxis (antigen-antibody reaction). Put plainly: Homologous Passive Cutaneous Anaphylaxis in Rats. Type of data set: in vivo, rat (Wistar male). The following applies: Rattus norvegicus, po; 200 mg/kg orally 2 hours prior to the injection of antigen. Here is the method: Wistar male rats weighing 120-150 g were used in this experiment. […]. Normal rats were sensitized passively with dilution of the antibody by means of intradermal injection. After 48 hours of the sensitization, the mixture of antigen (EA) and evens blue was injected intravenously. The animals were killed by a blow on the head 30 minutes after the injection, and then the blue spot resulted from the antigen-antibody reaction was measured photometrically.
A given test compound dissolved in 1 % NaHCO3 solution was administrated in a dose of 200 mg/kg orally 2 hours prior to the injection of antigen, while only the vehicle solution was administered to the control group.
The efficacy of the test compounds to inhibit the homologous passive cutaneous anaphlaxis was compared with the value (%) calculated using the following formula: [formula] wherein A stands for the amount of leaked dye in control group and B for the amount of leaked dye in the group administered with a given test compound.

For data set [2], the system named is sensitized mesenteric mast cells. The experiment in a line: Effect on the Disruption of the Sensitized Mast Cells. Format: cell-based, rat. The following applies: 10^-5 g/ml, 5 minutes prior to the treatment of antigen. Here is the method:
Mesenteric mast cells isolated from normal rats were sensitized passively by means of incubation with rat reaginic antibody at 37° C. After termination of the incubation, the specific antigen (DNP-Ascaris) was added to the incubation medium, then these mast cells in mesentery were fixed with formalin and stained with 0.1 % toluidine blue (in acetic acid buffer; pH: 4.6). The number of mast cells disrupted as a consequence of the antigen-antibody reaction were counted under a microscope. The number of the mast cells disrupted were also counted without the addition of the specific antigen.
A given test compound dissolved in 1 % NaHCO3 solution was added to the incubation medium at a concentration of 10^-5 g/ml, 5 minutes prior to the treatment of antigen, while only the vehicle was added to the control group.
The efficacy of the test compounds to inhibit the mast cell disruption was compared with the value (%) calculated using the following formula: [formula] wherein P stands for the percentage of disrupted mast cells in the control group, Q for the percentage of mast cells disrupted spontaneously and R for the percentage of disrupted mast cells in the group treated with a given test compound.

Data set [3] concerns experimental asthma in rats. The experiment in a line: Experimental Asthma in Rats. Type of data set: in vivo, rat. The following applies: for minimal effective dose: Rattus norvegicus, oral, 2 hours before antigen injection. Here is the method: Twenty normal male rats weighing 120-150 g were divided into four groups each consisting of five rats. All of the rats were sensitized passively by means of intravenous injection of rat reaginic antibody. After a lapse of 22 hours of sensitization, 5 milliliters of a 1% aqueous solution of NaHCO3 containing (3',4'-dimethoxycinnamoylamino)-benzoic acid* in a dose of 0 mg/kg (control), 5 mg/kg, 10 mg/kg and 20 mg/kg were orally administered to the rats in each group, and then canulation was begun on both the trachea and the common carotid artery on the rats. The rate and volume of respiration and systemic blood pressure were recorded simultaneously on a polygraph.
After 2 hours of administration, the challenge symptoms were subjected, by means of injection of the antigen, and the results are shown in the drawing attached herewith.

A short description of data set [4]: Acute Toxicity (LD50) in rats. Type of data set: in vivo. Conditions: rat, in vivo, mortality on the 8th day. Here is the method:
(§1) The median lethal dose (LD50) of the new aromatic carboxylic acid amide derivatives of this invention were determined in dd-stain male and female mice (6 weeks old) by oral administration and in Wistar strain male and female rats (7 weeks old) by oral and intraperitoneal administration. Each animal selected for the experiment was maintained in an air conditioned room at a temperature of 22° ± 1° C and a relative humidity of 55 ± 5% during the full course of the experiment. All animals were fed compressed pellets (CE-2 type produced by Japan CLEA Co.) and water was available ad libitum by bottle. Five groups of ten animals for each administration route were used.
(§2) Since these compounds were isoluble in water, they were suspended in a 0.5% aqueous solution of carboxymethylcellulose at each dosage level. The administrative volume of each agent to 10 g body weight mouse was 0.2 ml for oral administration, while that to 100g body weight of rat was 0.5 ml for intraperitoneal and oral administrations.
(§3) The LD50 values were calculated from the mortality on the 8th day by the Litchfield-Wilcoxon's method.

A further data set has as its system Wistar strain rats. Put plainly: Acute Toxicity (LD50) in rats. Conditions: mortality on the 8th day, 11520 min. Format: in vivo. Here is the method:
as §1, §2, §3

Data set [5] in a line: Acute Toxicity (LD50) in mice. Format: in vivo. Conditions: mouse, in vivo, po, mortality on the 8th day. Here is the method:
as §1, §2, §3

The next data set has as its system dd-stain mice. The experiment in a line: Acute Toxicity (LD50) in mice. Type of data set: in vivo. The following applies: oral, mortality on the 8th day, 11520 min. Here is the method: as §1, §2, §3
Data set [6] relates to adult patients having asthma bronchiale. The experiment in a line: Clinical trial for adults. Format: in vivo, human. Conditions: oral. The text has this: A clinical trial was made by administering 2-(3',[…]-dimethoxycinnamoylamino)-benzoic acid orally to adult patients having asthma bronchiale. These patients having asthma bronchiale were chosen from those suffering from atopic and mixed forms. Determination of the effect were integrally judged from the extent of subjective symptoms (the number of asthma attacks, the degree of dyspnea, wheeze, the number of cough attacks and sputum expectoration), objective findings (dry rale) and pulmonary function test.
The effect was evaluated by five grades of "remarkable improvement", "moderate improvement", "slight improvement", "unchanged", and "aggravated". A daily dose (400-600 mg) of the active compound in the powdery preparation obtained in Example 12 was administered orally to patients in equal portions four times daily, ie, after every meal and before sleeping.

Data set [7] has as its system child patients having asthma bronchiale. The experiment in a line: Clinical trial for children. Format: in vivo, human. Conditions: oral. The text has this:
A clinical trial was made by orally administering Compound No. 33 to child patients having asthma bronchiale. Child patients having asthma bronchiale in atopic and mixed forms were chosen for the clinical trial. Determination of the effect was integrally judged from the extent of subjective symptoms (the number of asthma attacks, the degree of dyspnea, wheeze, the number of cough attacks and sputum expectoration), objective findings (dry rale) and pulmonary function test.
The effect was evaluated by five grades of "remarkable improvement", "moderate improvement", "slight improvement", "unchanged"and "aggravated". A daily dose (100-200 mg) of the active compound in the powdery preparation obtained in Example 12 was administered orally to patients in equal portions four times a day, i.e., after every meal and before sleeping.

Data set [8] deals with antiallergic action, oral administration to mammalia. Conditions: known art; cited from earlier work.
The next data set concerns mast cells. The following applies: known art, cited from earlier work.

Regarding `COc1ccc(C=CC(=O)Nc2ccccc2C(=O)O)cc1OC` [Compound No. 33, N-(3',4'-dimethoxycinnamoyl)-anthranilic acid], the inhibition at 200 mg/kg in data set [1] was determined as 46.1%. The “Inhibition percentage (mast cell disruption)” value in data set [2] stood at 33%. Further, the minimal effective dose is at least 5 mg/kg in data set [3] (read-out: dose showing inhibition of decrease in the rate of respiration) and at least 10 mg/kg in [3] (read-out: dose showing inhibition of decrease in the volume of respiration). Also, the “Asthmatic symptoms resulting from the challenge” value in data set [3] (oral 5, 10, 20 mg/kg) is given as “observed in the control group only”. Moreover, in data set [3] (oral 5, 10, 20 mg/kg, just after the challenge), the “effect on depression of blood pressure just after the challenge” value is on record as “no inhibiting effect”. Further, in data set [3] (oral 5, 10, 20 mg/kg, subsequent depression), the “effect on subsequent depression of blood pressure” value is listed as “showed an inhibiting effect on subsequent depression”. The LD50 at 192 h stood at 385 mg/kg in data set [4] (ip, intraperitoneal); 1850 mg/kg in data set [4] (po); 705 mg/kg in data set [5]. Besides, the LD50 in the data set with Wistar strain rats (intraperitoneal) was found to be 338 mg/kg; in the data set with Wistar strain rats (oral), 2030 mg/kg; in the data set with dd-stain mice, 500 mg/kg. Further, the Evaluation entry in data set [6] (400mg × 14 days) is “slight imp”; in [6] (400mg × 21 days) it was “mod. impr”; in [6] (600mg × 14 days, row), “slight imp; also recorded: mod. impr”; in [6] (600mg × 20 days), “unchanged”; in [6] (600mg × 21 days) it was “unchanged”; in data set [6] (600mg × 24 days), “mod. impr”. Also, the Evaluation entry was “mod. impr” in [7] (200 mg × 15 days), “slight impr” in [7] (200 mg × 29 days) and “slight imp” in data set [7] (200 mg × 35 days). Also, the Side effect entry in [6] (400mg × 14 days), in data set [6] (400mg × 21 days), in data set [6] (600mg × 14 days), in data set [6] (600mg × 20 days), in [6] (600mg × 21 days) and in data set [6] (600mg × 24 days) was “none” throughout. The Side effect entry in [7] (200 mg × 15 days), in data set [7] (200 mg × 29 days) and in [7] (200 mg × 35 days) was “none” in each case.
Consider `O=C(O)c1cc(=O)c2c(OCC(O)COc3cccc4oc(C(=O)O)cc(=O)c34)cccc2o1` [Disodium cromoglycate], for which the “Inhibition percentage (mast cell disruption)” value in [2] is reported as 16%. Also, in data set [8], the “pharmacological effect when administered orally (in words)” value is given as “loses its pharmacological effect when administered orally”. The “inhibition of mast cell disruption (in words)” value is “inhibitor of mast cell disruption” in the data set with mast cells; “inhibits the disruption of mast cells and release therefrom of chemical mediators” in the data set with mast cells (listed as disodium cromoglycate).
